# Where two headings read alike, the source gives them in different places. Where no end group is shown, it is not given here.
# What was measured:
# [1] = type: physicochemical
# Method: A batch of fsp5 (SEQ ID NO: 19) was prepared by solid phase peptide synthesis (SPPS) by using FMOC chemistry and Prelude synthesizer (Gyros Protein Technologies Inc., USA). The crude peptide was analysed by UPLC and MS. […] UPLC system: Column; Acquity UPLC BEH C18 […], detection; PDA 210-500 nm, solvent A); 0.1% TFA in water, solvent B; 0.1% TFA in MeCN, gradient: 20-70% B (2-10 minutes, linear).
# When the purity of the small amount of purified fsp5 (SEQ ID NO: 19) was reassessed by UPLC after lyophilisation, the purity had dropped from around 90% to below 50% as shown in FIG. 4.
# [2] = test system: T cells (PBMC) from healthy donors; experiment: T-cell proliferation (3H-thymidine, SI) after in vitro stimulation of PBMC with cocktail fsp2+fsp4 (Example 4); type: cell-based, human; set-up: T cell proliferation (stimulation index, SI): immunogenicity: dose or concentration left out as unconfirmed
# Method: Fresh buffy coats from four healthy donors were obtained from a blood bank.
# Peripheral blood mononuclear cells (PBMC) isolated from fresh buffy coats from four healthy donors were counted and suspended in DC medium to 15*10^6 cells/ml, and subsequently diluted with DC-medium to 4*10^6 cells/ml (Table 6).
# Four 24-well plates were used for each donor, with 4*10^6 cells per well (each well has a volume of 1 ml).
# Peptide cocktail: Solution of peptides fsp2+fsp4, containing […] of each peptide. 40 μl peptide solution was added to each well.
# The plates were incubated in a cell incubator for 14 days (37° C., 5% CO2). IL-2 and IL-7 were added on day 3. The cells were inspected daily.
# Test peptides: fsp2+fsp4 (SEQ ID NOs: 21 and 23), fsp1 (SEQ ID NO: 20), fsp2 (SEQ ID NO: 21), fsp3 (SEQ ID NO: 22), fsp4 (SEQ ID NO: 23), fsp5 (SEQ ID NO: 19).
# Negative controls: T cells, T cells+APC (without addition of test peptides)
# Cells and reagents were added to plate wells (in triplicate) as described in Tables 8 and 9 below. The total volume added to each well was 0.20 ml. • T cells (PBMC): 50 000 cells/well (0.25*10^6 cells/ml) • APC: Irradiated (30 Gy, 8 minutes) autologous feeder cells: 50 000 cells/well • (fspx): 0.2 nmol peptide/well (each peptide), concentration: […] peptide. (fsp was dissolved in DMSO before dilution to correct concentration)
# The plates were incubated in a cell incubator for 48 hours (37° C., 5% CO2).
# After incubation for 48 hours, 20 μl 3H-tThymidine solution (5 Ci/ml) was added to each well and the plates were incubated for approximately 17 hours (37° C., 5% CO2).
# After 17 hours the cells were harvested (Unifilters) and dried on the filters at 45° C. until completely dry. After covering the bottom of the Unifilters with adhesive covers (delivered with the Unifilters) 25 μl micro scintillation liquid was added to each well, the plate was covered with TopSeal and 3H-Thymidine uptake was measured as counts per minute (CPM) using a microplate scintillation counter.
# The T cell proliferation results after the first round of in vitro stimulation with the cocktail of fsp2 and fsp4 peptides are presented as stimulation index (SI) in FIG. 10. SI=mean CPM (triplicates) of (T cells+APC+test peptide(s)) divided by mean CPM (triplicates) of (T cells+APC). SI>1 indicates an increase in T-cell proliferation and SI 2 is a clear sign of immunogenicity.
# PBMCs harvested after the first in vitro stimulation were re-stimulated in vitro according to the protocol set out above, with 2×10^6 cells per well. T-cell proliferation was tested according to the protocol set out above.
# [3] = type: physicochemical; remark: listed apart in the source
# Method: The peptide was difficult to dissolve and it was attempted to dissolve the crude fsp5 (SEQ ID NO: 19) (˜150 mg) in approximately 4 ml 50% MeCN in water under gentle heating.
# Another batch of fsp5 (SEQ ID NO: 19) was prepared, dissolved in neat DMSO under gentle heating and purified by preparative HPLC. Again, only very small amounts of purified fsp5 (SEQ ID NO: 19) were obtained.
# [4] = test system: T-cells from PMBCs of healthy donors; experiment: T-cell proliferation after stimulation of PMBCs with mixture fsp17, fsp15 and fsp16 (Example 9); type: cell-based, human
# Method: Using a similar procedure to that used in Examples 4 and 7 above, PMBCs from four healthy donors were stimulated in vitro with a peptide mixture containing equimolar amounts (10 uM) of fsp17 (SEQ ID NO: 126), fsp15 (SEQ ID NO: 127) and fsp16 (SEQ ID NO: 128), which are shown in Table 15, below. These peptides have the non-chiral amino acid glycine at their C-terminal, which can serve as a linker for conjugation of the peptides to other molecules. It is expected that this C-terminal glycine will not create any new T-cell epitopes which will change the specificity of the induced T-cells.
# After one round (14 days) of in vitro stimulation, T-cells were harvested and tested for recognition of the peptide mixture or individual peptides, using a concentration of 10 μM of each peptide. T-cell proliferation was measured as counts per minute (CPM) after uptake of ^3H-thymidine in a standard T cell proliferation assay.
# The PMBCs from the four healthy donors underwent a second round of in vitro stimulation, and T-cells were again harvested and tested for proliferation against the peptide mixture and the individual peptides.
# [5] = test system: colorectal cancer cell line HCT116; details: Linnebacher et al.; HCT116 carries the corresponding frameshift mutation; cited from earlier work
# [6] = test system: T cells; details: cited from earlier work
# [7] = test system: T-cells from PMBCs of healthy donors; experiment: T-cell proliferation after stimulation of PMBCs with mixture fsp10, fsp11 and fsp13 (Example 8); type: cell-based, human; details: FIG. 19; for T-cell response (proliferation, CPM): donor 1, one round of in vitro stimulation (14 days), 10 μM
# Method: Using a similar procedure to that used in Examples 4 and 7 above, PMBCs from four healthy donors were stimulated in vitro with a peptide mixture containing equimolar amounts (10 uM) of fsp10 (SEQ ID NO: 28), fsp11 (SEQ ID NO: 29) and fsp13 (SEQ ID NO: 31).
# After one round of stimulation (14 days), T-cells were harvested and tested for recognition of the peptide mixture, using single peptide concentrations of 10 μM. T-cell proliferation was measured as counts per minute (CPM) after uptake of ^3H-thymidine in a standard T cell proliferation assay.
# The PMBCs from the four healthy donors underwent a second round of in vitro stimulation, and T-cells were again harvested and tested for proliferation against the peptide mixture and the individual peptides. […] While it has, in the past, been considered that a SI value of greater than 2 is the criterion for indicating a T-cell response in a T-cell proliferation assay, this is only the case in subjects who have been vaccinated prior to the T-cell proliferation assay. Where a healthy subject has not been vaccinated before the T-cell proliferation assay (as in the present T-cell proliferation assay), it is not expected that a SI value of 2 or greater will be achieved. Therefore, in non-vaccinated, healthy subjects, an increase in the SI value above 1 is indicative of a T-cell response.
# [8] = second round of in vitro stimulation, FIG. 22
sequence,measurement,setting,value
"KCIMKEKKSLVRLSSCVPVALMSAMTTSSSQKN (listed as Homo sapiens) [fsp5, optimised consensus peptide of TGFβR2]",purity by UPLC after lyophilisation (stability),[1],below 50%
same,relative immunogenicity,"[2]; FIGS. 10 and 11, compared with fsp3 and fsp4",more immunogenic than peptides which do not comprise amino acids from the wild-type sequence of TGFβR2
same,"T cell proliferation (stimulation index, SI): immunogenicity","[2]; first and second round of in vitro stimulation with cocktail of fsp2 and fsp4, four healthy donors, FIGS. 10-12",stimulated T-cells induced from PMBCs
same,effect of adding water to DMSO solution,[3],precipitation of the peptide
same,solubility,[3],no clear solution could be obtained
"KGIMKEKKSLVRLSSCVPVALMSAMTG (not fully specified) [fsp17, modified peptide of −1a frameshifted TGFβR2]",T-cell induction (proliferation),[4]; [8],T-cells were induced
"KKKGRRNRIPAVLRTEGEPLHTPSVGMRETG (listed as Homo sapiens) [fsp15, peptide of −1a frameshifted ASTE1]",T-cell induction (proliferation),"[4]; one round (14 days) of in vitro stimulation, 10 μM, FIG. 21",T-cells are induced
same,T-cell induction (proliferation),[4]; [8],T-cells were induced
"RLSSCVPVA (listed as Homo sapiens) [p573, prior art peptide of mutTGFβR2]",lysis of colorectal cancer cell line HCT116,[5],able to lyse the colorectal cancer cell line HCT116
same,immunogenicity,"[6]; EP1078000 FIG. 14, four rounds of stimulation of the T-cells",not immunogenic
same,immunogenicity,"[6]; Linnebacher et al., FIG. 1",immunogenic
same,activating specific CTLs,"[6]; Linnebacher et al., HLA-A2.1 restricted, in vitro",capable of activating specific CTLs
same,immunogenicity,"[6]; Saeterdal et al., 2001, Cancer Immunol Immunother",immunogenic
same,generation of CTL line and CTL clones,"[6]; Saeterdal et al., Cancer Immunol Immunother 2001",able to generate a CTL line and several CTL clones
"SCPLRDLQTLWPILALISMSSIWGTMFS (listed as Homo sapiens) [fsp11, peptide of −1a frameshifted SLC22A9]","T-cell response (proliferation, CPM)",[7],induced T-cell responses
same,induction of T-cells relative to mixture of fsp11 and fsp13,"[7]; donor 1, one round",greater induction of T-cells than the mixture of fsp11
"STCPTYVKGSPSCPLRDLQ (listed as Homo sapiens) [fsp13, peptide of −1a frameshifted SLC22A9]","T-cell response (proliferation, CPM)",[7],did not stimulate T-cells
